Measured values as given in patent US8101740B2, “Positron emission tomography probes for imaging immune activation and selected cancers” (The Regents of the University of California, priority 2007, dated 2012).

Key:
[1] = system: splenic CD8+T cells; assay: radioactivity in sorted splenic CD8+T cells from mice injected with probe; format: in vivo; conditions: CD62LLOW/CD44HIGH vs CD62LHIGH/CD44LOW
Text: To further investigate the cellular basis of elevated [^18F]D-FAC retention, splenic CD8+T cells from mice injected with [^18F]FAC were fractionated by flow cytometry into naïve (CD62LHIGH/CD44LOW) and effector populations (CD62LLOW/CD44HIGH).

[2] = probe accumulation in necropsy tissue of mouse strains incl. BDC-2.5 (type 1 diabetes model); format: in vivo, BDC-2.5 mice; conditions: necropsy tissue samples
Text: Elevated retention of the [^18F]D-FAC probe in joints and the intestine over physiologic uptake values may reflect the presence of an active inflammatory processes that is characteristic of rheumatoid arthritis and inflammatory bowel disease, respectively. [^18F]D-FAC microPET can also be used to detect overt autoreactive immune activation in a BDC-2.5 mouse model that is prone to type 1 diabetes (FIG. 8). In FIG. 8A, the 1 mm coronal sections illustrate the pattern of [^18F]D-FAC probe accumulation in BDC-2.5 mice. (Abbreviations: CV, cervical LNs; AX, axillary LNs; BR, brachial LNs; IN, inguinal LNs; THY, Thymus; GI, Gastrointestinal tract; H, heart.) In FIG. 8B, [^18F]D-FAC accumulation is measured in necropsy tissue samples from BL/6, BALB/c, NOD LTJ, and BDC-2.5 mice.
FIG. 8 presents the results of microPET/CT imaging performed on BDC-2.5 T cell receptor transgenic mice injected with the [^18F]D-FAC probe. The BDC-2.5 strain is a well-established animal model for type I (autoimmunity-based) diabetes. In FIG. 8A, the 1 mm coronal sections illustrate the pattern of the [^18F]D-FAC probe accumulation in BDC-2.5 mice. (Abbreviations: CV, cervical LNs; AX, axillary LNs; BR, brachial LNs; IN, inguinal LNs; THY, Thymus; GI, Gastrointestinal tract; H, heart.) In FIG. 8B, [^18F]D-FAC accumulation is measured in necropsy tissue samples from BL/6, BALB/c, NOD Ltj and BDC-2.5 mice. […]

[3] = system: murine B16 cells; assay: microPET/CT of implanted B16 melanoma; format: in vivo, C57BL/6 mice; conditions: imaged 7 days after 1×10^5 cells subcutaneously
Protocol: In addition to immune diseases, [^18F]D-FAC may also be used to measure dysregulated nucleoside metabolism in cancer. To this end, we examined the utility of [^18F]D-FAC microPET in animal models representative of leukemia or lymphoma, melanoma, and glioma tumors (FIG. 12, where the images are 1 mm coronal sections from [^18F]D-FAC microPET/CT scans 1 hr after probe injection). In FIG. 12A, SCID mice were injected intravenously with Ba/F3 cells expressing p210 BCR-ABL and go on to develop aggressive disease with massive splenic infiltration that typically results in death within ˜15 days (mice shown were imaged on day 12). In FIG. 12B, the NOD SCID mice were transplanted with wild type total bone marrow cells infected with MSCV-GFP-IRES-P185 BCR-ABL retroviral stocks and the leukemic mice were imaged 28 days following transplantation. In FIG. 12C, C57BL/6 was injected subcutaneously with 1×10^5 B16 melanoma cells and imaged 7 days later. In FIG. 12D, SCID mice were injected subcutaneously with 1×10^6 U87 glioma cells and imaged 10 days later. […] [^18F]D-FAC PET also detected implanted murine B16 cells (representative of malignant melanoma) and human U87 cells (representative of glioma tumors). […]

[4] = system: L1210 wild type or 10K subcutaneous tumors; assay: PET of subcutaneous L1210 wild type and 10K tumors; format: in vivo, SCID mice; conditions: 4 days after injection
Protocol: To investigate whether [^18F]D-FAC PET can distinguish gemcitabine-sensitive cancer cells from the resistant cancer cells in vivo, mice were injected with L1210 wild type or 10K cells to establish subcutaneous tumors; mice were scanned with [^18F]FDG PET to confirm that implanted cells were viable and growing in vivo and [^18F]D-FAC PET scans were carried out to compare D-FAC accumulation in gemcitabine sensitive versus resistant cells. […] The mice were injected 4 days prior to imaging.
Mice were challenged with the MoMSV onco-retrovirus.

[5] = biodistribution and radiation dosimetry in healthy human subjects; format: in vivo
Protocol: [^18F]D-FAC was evaluated in humans to a preliminary degree, whereby we investigated the normal biodistribution and radiation dosimetry of [^18F]D-FAC in human subjects (FIG. 16). […] Emission scans were acquired 20, 48, and 76 min post injection and radiation dosimetry estimates were calculated using the Olinda® software. […] The radiation dosimetry estimates show high agreement with the dosimetry results obtained from the studies in mice. The dose-limiting organs were the urinary bladder wall and the kidneys.

## Nc1ccn([C@@H]2O[C@H](CO)[C@@H](O)[C@@H]2[18F])c(=O)n1 [[^18F]D-FAC, 1-(2′-deoxy-2′-[^18F]fluoro-β-D-arabinofuranosyl)cytosine]
[1]
  retention in effector CD8+T cells versus naïve cytotoxic T cells: ~4 fold
[2]
  accumulation in spleen and lymph nodes among BL/6, BALB/c, NOD Ltj and BDC-2.5 mice: highest levels
[3]
  detection of implanted tumor cells by PET: detected
[4]; L1210-10K
  retention/visualization in dCK deficient, gemcitabine resistant tumors: did not accumulate
[4]; L1210 WT
  retention/visualization in dCK positive, gemcitabine sensitive tumors: clearly detectable
[5]; 3 healthy male subjects
  absorbed dose, heart wall: 5.92E-02 rem/mCi
  absorbed dose, kidneys: 1.06E-01 rem/mCi
  absorbed dose, osteogenic cells: 6.69E-02 rem/mCi
  absorbed dose, small intestine: 5.80E-02 rem/mCi
  absorbed dose, spleen: 7.36E-02 rem/mCi
  absorbed dose, urinary bladder wall: 2.06E-01 rem/mCi
  effective dose overall: 5.08E-02 rem/mCi
[5]; human, in vivo
  retention in the GI tract in humans in contrast to mice: substantially lower
[5]; scans 20, 48 and 76 min post injection
  organs with the highest accumulation: the bladder, the kidneys, the spleen, the salivary glands, and the heart
